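1) Cells in 96-well plates. 2) Compound, 48 h, 5 concentrations. 3) Linear interpolation between surrounding doses. 4) Unreached endpoint = highest concentration. Definition used: TGI = concentration required for complete inhibition of growth.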 Where a SMILES comes first, the peptide text is derived from it. The star is where a group is joined. Boc = CC(C)(C)OC(=O)*; OBn = c1ccc(CO*)cc1
Each molecule was assayed on SF-539 CNS (assay: NCI-60 cell line screen, 48 h).

Compound | TGI
CCOC(=O)C1=CN/C(=C(/C)C(=O)OC)SC1C(=O)OCC (centres undefined) | > 100 µM
Cc1ccc2c(c1)C(=O)/C(=N/Nc1ccc(Cl)cc1)CCO2 | > 100 µM
COc1cc(C2SCC(=O)N2c2ccccc2Cl)cc(OC)c1OC (centres undefined) | > 100 µM
CN(C)c1ccc(/C=N\NC(=O)c2ccccc2Nc2ccccc2C(=O)N/N=C/c2ccc(N(C)C)cc2)cc1 | 81.9 µM
C=C1C(=O)OC2/C=C(\CO)C3OC3C3OC3(C)CC(OC(=O)/C(=C/C)CO)C12 (centres undefined) | > 100 µM
COc1cc(/C=C(\C#N)c2nc3ccccc3o2)ccc1O | 28.5 µM
COc1ccc2cc(CNCCCCCCCCCCCCNCc3ccc4cc(OC)ccc4c3)ccc2c1 | 31.8 µM
COC(=O)c1c(O)ccc2c1c1c(n2Cc2ccccc2)C(=O)c2ccccc2C1=O | 29.1 µM
Cc1csc2nc3c(cnn3C)c(=S)n12 | > 100 µM
Cc1cc(C)nc(NS(=O)(=O)c2ccc(NNc3c4ccccc4nc4c(C(=O)Nc5ccc(S(=O)(=O)Nc6ncccn6)cc5)cccc34)cc2)n1 | 69.4 µM
COCC(N=CN1CCCc2ccccc2[C@@H]1CCCCl)C(C)(C)C (some centres undefined) | 24.4 µM
CNc1c2cccc(C)c2nc2c(C(=O)NCCN(C)C)cccc12 | 0.245 µM
O=C1CC(NC(=O)C(F)(F)F)c2c1csc2Br (centres undefined) | > 100 µM
CCC(Sc1cc(Cl)c(C)cc1S(=O)(=O)Nc1nc(N)nc(N(C)C)n1)C(=O)O (centres undefined) | > 10 µM
O=C(N/N=C/c1ccc2c(c1)OCO2)Nc1ccccc1Cl | 24.8 µM
C[C@]12C[C@H](c3ccccc3)Nc3ccccc3N1C(c1ccccc1)=NO2 | > 100 µM
O=c1c(C=Nc2ccccc2Cl)c(O)n(-c2ccccc2)c(=O)n1-c1ccccc1 | > 100 µM
CCOC(=O)NNC(=O)C1CSC(c2ccccc2)N1C(C)=O (centres undefined) | > 100 µM
Cc1ccc2nc(CN3CCCC(O)C3)cc(=O)n2c1 (centres undefined) | > 100 µM
CCOC(=O)C(SCCO)C(C(=O)OCC)n1cnc2c(N)ncnc21 (centres undefined) | 35.5 µM
COc1ccc2nc3c([N+](=O)[O-])ccc4c3c(c2c1)N=CN4CCCN(C)C | 13 µM
CC(C)C(NC(=O)C(Cc1ccccc1)NC(=O)OC(C)(C)C)C(=O)NCC(=O)OCc1ccccc1 (stereo not drawn) (Boc-Phe-Val-Gly-OBn; configuration not given here) | 43.3 µM

Each molecule was assayed on TK-10 renal (assay: NCI-60 cell line screen, 48 h).

Compound | TGI
CCOC(=O)C1=CN/C(=C(/C)C(=O)OC)SC1C(=O)OCC (centres undefined) | > 100 µM
Cc1ccc2c(c1)C(=O)/C(=N/Nc1ccc(Cl)cc1)CCO2 | > 100 µM
COc1cc(C2SCC(=O)N2c2ccccc2Cl)cc(OC)c1OC (centres undefined) | > 100 µM
CN(C)c1ccc(/C=N\NC(=O)c2ccccc2Nc2ccccc2C(=O)N/N=C/c2ccc(N(C)C)cc2)cc1 | > 100 µM
C=C1C(=O)OC2/C=C(\CO)C3OC3C3OC3(C)CC(OC(=O)/C(=C/C)CO)C12 (centres undefined) | > 100 µM
COc1cc(/C=C(\C#N)c2nc3ccccc3o2)ccc1O | 75 µM
COc1ccc2cc(CNCCCCCCCCCCCCNCc3ccc4cc(OC)ccc4c3)ccc2c1 | 32.8 µM
COC(=O)c1c(O)ccc2c1c1c(n2Cc2ccccc2)C(=O)c2ccccc2C1=O | 31.8 µM
Cc1csc2nc3c(cnn3C)c(=S)n12 | > 100 µM
Cc1cc(C)nc(NS(=O)(=O)c2ccc(NNc3c4ccccc4nc4c(C(=O)Nc5ccc(S(=O)(=O)Nc6ncccn6)cc5)cccc34)cc2)n1 | > 100 µM
COCC(N=CN1CCCc2ccccc2[C@@H]1CCCCl)C(C)(C)C (some centres undefined) | 28.8 µM
CNc1c2cccc(C)c2nc2c(C(=O)NCCN(C)C)cccc12 | 0.617 µM
O=C1CC(NC(=O)C(F)(F)F)c2c1csc2Br (centres undefined) | > 100 µM
CCC(Sc1cc(Cl)c(C)cc1S(=O)(=O)Nc1nc(N)nc(N(C)C)n1)C(=O)O (centres undefined) | > 10 µM
O=C(N/N=C/c1ccc2c(c1)OCO2)Nc1ccccc1Cl | 21 µM
C[C@]12C[C@H](c3ccccc3)Nc3ccccc3N1C(c1ccccc1)=NO2 | > 100 µM
O=c1c(C=Nc2ccccc2Cl)c(O)n(-c2ccccc2)c(=O)n1-c1ccccc1 | > 100 µM
CCOC(=O)NNC(=O)C1CSC(c2ccccc2)N1C(C)=O (centres undefined) | > 100 µM
Cc1ccc2nc(CN3CCCC(O)C3)cc(=O)n2c1 (centres undefined) | > 100 µM
CCOC(=O)C(SCCO)C(C(=O)OCC)n1cnc2c(N)ncnc21 (centres undefined) | 28.3 µM
COc1ccc2nc3c([N+](=O)[O-])ccc4c3c(c2c1)N=CN4CCCN(C)C | 6.51 µM
CC(C)C(NC(=O)C(Cc1ccccc1)NC(=O)OC(C)(C)C)C(=O)NCC(=O)OCc1ccccc1 (stereo not drawn) (Boc-Phe-Val-Gly-OBn; configuration not given here) | 27.1 µM

Each molecule was assayed on NCI-H23 lung (assay: NCI-60 cell line screen, 48 h).

Compound | TGI
CCOC(=O)C1=CN/C(=C(/C)C(=O)OC)SC1C(=O)OCC (centres undefined) | > 100 µM
Cc1ccc2c(c1)C(=O)/C(=N/Nc1ccc(Cl)cc1)CCO2 | > 100 µM
COc1cc(C2SCC(=O)N2c2ccccc2Cl)cc(OC)c1OC (centres undefined) | > 100 µM
CN(C)c1ccc(/C=N\NC(=O)c2ccccc2Nc2ccccc2C(=O)N/N=C/c2ccc(N(C)C)cc2)cc1 | > 100 µM
C=C1C(=O)OC2/C=C(\CO)C3OC3C3OC3(C)CC(OC(=O)/C(=C/C)CO)C12 (centres undefined) | > 100 µM
COc1cc(/C=C(\C#N)c2nc3ccccc3o2)ccc1O | 70 µM
COc1ccc2cc(CNCCCCCCCCCCCCNCc3ccc4cc(OC)ccc4c3)ccc2c1 | 34.3 µM
COC(=O)c1c(O)ccc2c1c1c(n2Cc2ccccc2)C(=O)c2ccccc2C1=O | 31.6 µM
Cc1csc2nc3c(cnn3C)c(=S)n12 | > 100 µM
Cc1cc(C)nc(NS(=O)(=O)c2ccc(NNc3c4ccccc4nc4c(C(=O)Nc5ccc(S(=O)(=O)Nc6ncccn6)cc5)cccc34)cc2)n1 | 69.5 µM
COCC(N=CN1CCCc2ccccc2[C@@H]1CCCCl)C(C)(C)C (some centres undefined) | 21.1 µM
CNc1c2cccc(C)c2nc2c(C(=O)NCCN(C)C)cccc12 | 0.286 µM
O=C1CC(NC(=O)C(F)(F)F)c2c1csc2Br (centres undefined) | > 100 µM
CCC(Sc1cc(Cl)c(C)cc1S(=O)(=O)Nc1nc(N)nc(N(C)C)n1)C(=O)O (centres undefined) | > 10 µM
O=C(N/N=C/c1ccc2c(c1)OCO2)Nc1ccccc1Cl | > 43.8 µM
C[C@]12C[C@H](c3ccccc3)Nc3ccccc3N1C(c1ccccc1)=NO2 | > 100 µM
O=c1c(C=Nc2ccccc2Cl)c(O)n(-c2ccccc2)c(=O)n1-c1ccccc1 | > 100 µM
CCOC(=O)NNC(=O)C1CSC(c2ccccc2)N1C(C)=O (centres undefined) | > 100 µM
Cc1ccc2nc(CN3CCCC(O)C3)cc(=O)n2c1 (centres undefined) | > 100 µM
CCOC(=O)C(SCCO)C(C(=O)OCC)n1cnc2c(N)ncnc21 (centres undefined) | 31.2 µM
COc1ccc2nc3c([N+](=O)[O-])ccc4c3c(c2c1)N=CN4CCCN(C)C | 18.7 µM
CC(C)C(NC(=O)C(Cc1ccccc1)NC(=O)OC(C)(C)C)C(=O)NCC(=O)OCc1ccccc1 (stereo not drawn) (Boc-Phe-Val-Gly-OBn; configuration not given here) | 36.1 µM

What follows are molecules tested on CAKI-1 renal (assay: NCI-60 cell line screen, 48 h).

Compound | TGI
CCOC(=O)C1=CN/C(=C(/C)C(=O)OC)SC1C(=O)OCC (centres undefined) | > 100 µM
Cc1ccc2c(c1)C(=O)/C(=N/Nc1ccc(Cl)cc1)CCO2 | > 100 µM
COc1cc(C2SCC(=O)N2c2ccccc2Cl)cc(OC)c1OC (centres undefined) | > 100 µM
CN(C)c1ccc(/C=N\NC(=O)c2ccccc2Nc2ccccc2C(=O)N/N=C/c2ccc(N(C)C)cc2)cc1 | > 100 µM
C=C1C(=O)OC2/C=C(\CO)C3OC3C3OC3(C)CC(OC(=O)/C(=C/C)CO)C12 (centres undefined) | 77.4 µM
COc1cc(/C=C(\C#N)c2nc3ccccc3o2)ccc1O | 45.9 µM
COc1ccc2cc(CNCCCCCCCCCCCCNCc3ccc4cc(OC)ccc4c3)ccc2c1 | 47.3 µM
COC(=O)c1c(O)ccc2c1c1c(n2Cc2ccccc2)C(=O)c2ccccc2C1=O | 36.9 µM
Cc1csc2nc3c(cnn3C)c(=S)n12 | > 100 µM
Cc1cc(C)nc(NS(=O)(=O)c2ccc(NNc3c4ccccc4nc4c(C(=O)Nc5ccc(S(=O)(=O)Nc6ncccn6)cc5)cccc34)cc2)n1 | > 100 µM
COCC(N=CN1CCCc2ccccc2[C@@H]1CCCCl)C(C)(C)C (some centres undefined) | 31.9 µM
CNc1c2cccc(C)c2nc2c(C(=O)NCCN(C)C)cccc12 | 0.23 µM
O=C1CC(NC(=O)C(F)(F)F)c2c1csc2Br (centres undefined) | 30.5 µM
CCC(Sc1cc(Cl)c(C)cc1S(=O)(=O)Nc1nc(N)nc(N(C)C)n1)C(=O)O (centres undefined) | > 10 µM
O=C(N/N=C/c1ccc2c(c1)OCO2)Nc1ccccc1Cl | > 100 µM
C[C@]12C[C@H](c3ccccc3)Nc3ccccc3N1C(c1ccccc1)=NO2 | > 100 µM
O=c1c(C=Nc2ccccc2Cl)c(O)n(-c2ccccc2)c(=O)n1-c1ccccc1 | > 100 µM
CCOC(=O)NNC(=O)C1CSC(c2ccccc2)N1C(C)=O (centres undefined) | > 100 µM
Cc1ccc2nc(CN3CCCC(O)C3)cc(=O)n2c1 (centres undefined) | > 100 µM
CCOC(=O)C(SCCO)C(C(=O)OCC)n1cnc2c(N)ncnc21 (centres undefined) | 15.1 µM
COc1ccc2nc3c([N+](=O)[O-])ccc4c3c(c2c1)N=CN4CCCN(C)C | 7.26 µM
CC(C)C(NC(=O)C(Cc1ccccc1)NC(=O)OC(C)(C)C)C(=O)NCC(=O)OCc1ccccc1 (stereo not drawn) (Boc-Phe-Val-Gly-OBn; configuration not given here) | 33.7 µM

Each molecule was assayed on SN12C renal (assay: NCI-60 cell line screen, 48 h).

Compound | TGI
CCOC(=O)C1=CN/C(=C(/C)C(=O)OC)SC1C(=O)OCC (centres undefined) | > 100 µM
Cc1ccc2c(c1)C(=O)/C(=N/Nc1ccc(Cl)cc1)CCO2 | > 100 µM
COc1cc(C2SCC(=O)N2c2ccccc2Cl)cc(OC)c1OC (centres undefined) | > 100 µM
CN(C)c1ccc(/C=N\NC(=O)c2ccccc2Nc2ccccc2C(=O)N/N=C/c2ccc(N(C)C)cc2)cc1 | > 100 µM
C=C1C(=O)OC2/C=C(\CO)C3OC3C3OC3(C)CC(OC(=O)/C(=C/C)CO)C12 (centres undefined) | > 100 µM
COc1cc(/C=C(\C#N)c2nc3ccccc3o2)ccc1O | > 100 µM
COc1ccc2cc(CNCCCCCCCCCCCCNCc3ccc4cc(OC)ccc4c3)ccc2c1 | 46.9 µM
COC(=O)c1c(O)ccc2c1c1c(n2Cc2ccccc2)C(=O)c2ccccc2C1=O | 28.1 µM
Cc1csc2nc3c(cnn3C)c(=S)n12 | > 100 µM
Cc1cc(C)nc(NS(=O)(=O)c2ccc(NNc3c4ccccc4nc4c(C(=O)Nc5ccc(S(=O)(=O)Nc6ncccn6)cc5)cccc34)cc2)n1 | 75.1 µM
COCC(N=CN1CCCc2ccccc2[C@@H]1CCCCl)C(C)(C)C (some centres undefined) | 59 µM
CNc1c2cccc(C)c2nc2c(C(=O)NCCN(C)C)cccc12 | 0.719 µM
O=C1CC(NC(=O)C(F)(F)F)c2c1csc2Br (centres undefined) | > 100 µM
CCC(Sc1cc(Cl)c(C)cc1S(=O)(=O)Nc1nc(N)nc(N(C)C)n1)C(=O)O (centres undefined) | > 10 µM
O=C(N/N=C/c1ccc2c(c1)OCO2)Nc1ccccc1Cl | > 46.7 µM
C[C@]12C[C@H](c3ccccc3)Nc3ccccc3N1C(c1ccccc1)=NO2 | > 100 µM
